Data from US20240000075A1, “FUNGICIDAL ARYL AMIDINES” (CORTEVA AGRISCIENCE LLC, priority 2020, published 2024).
Where two headings read alike, the source gives them in different places.

How the values were obtained:
Zymoseptoria tritici = assay: Septoria leaf blotch of wheat, whole-plant fungicidal activity (SEPTTR); assay type: in vivo, Zymoseptoria tritici on wheat plants (variety 'Yuma'); settings: read-out: % Disease Control Rating SEPTTR
Method in brief: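 Compounds in acetone, diluted with nine volumes of water containing 110 ppm Triton X-100, were sprayed to run-off on 'Yuma' wheat seedlings at full first-leaf emergence. Spore inoculation was 3 days before (3DC, curative) or 1 day after (1DP, protectant) treatment, then 3 days at 100% RH and greenhouse. First-leaf disease severity (0–100%) was scored relative to untreated plants as percent control.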

Puccinia triticina = assay: Wheat brown rust, whole-plant fungicidal activity (PUCCRT); assay type: in vivo, Puccinia triticina on wheat plants (variety 'Yuma'); settings: 24 h, 1DP (1 day protectant), read-out: % Disease Control Rating PUCCRT
Method in brief: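 Wheat 'Yuma' seedlings at first-leaf stage sprayed to run-off with compound from acetone stock diluted in nine volumes water containing 110 ppm Triton X-100, then inoculated with Puccinia triticina spores. Held overnight in dark dew room at 100% RH, then greenhouse for disease development.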

Phakopsora pachyrhizi = assay: Asian soybean rust, whole-plant fungicidal activity (PHAKPA); assay type: in vivo; settings: read-out: % Disease Control Rating PHAKPA
Method in brief: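 Ten-day-old 'Williams 82' soybean seedlings sprayed to run-off with compound in acetone/water (1:9, 0.011% Tween-20), air-dried, then inoculated; 24 h dark dew room at 100% RH, then growth room. Disease severity scored 0–100% on sprayed leaves; percent control relative to untreated plants.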

Rhynchosporium commune = assay: Leaf blotch of barley, whole-plant fungicidal activity (RHYNSE); assay type: in vivo; settings: 24 h, 1DP (1 day protectant), read-out: % Disease Control Rating RHYNSE
Method in brief: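 Barley cv. 'Harrington' at full first-leaf emergence (7-10 seedlings per pot) was sprayed to run-off with compound in acetone plus nine volumes of water containing 110 ppm Triton X-100, air-dried, then inoculated with spore suspension. Plants spent two days in a dark dew room at 100% RH, then moved to greenhouse for disease development.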

Cochliobolus sativus = assay: Spot blotch of barley, whole-plant fungicidal activity (COCHSA); assay type: in vivo; settings: 1DP (1 day protectant), 200 ppm
Method: Technical grades of materials were dissolved in acetone, which were then mixed with nine volumes of water (H2O) containing 110 ppm Triton X-100. The fungicide solutions were applied onto wheat seedlings using an automated booth sprayer to run-off. All sprayed plants were allowed to air dry prior to further handling. All fungicides were evaluated using the aforementioned method for their activity vs. all target diseases, unless stated otherwise. Example E. Evaluation of Fungicidal Activity: Spot Blotch of Barley (Cochliobolus sativus Bayer Code COCHSA) Barley seedlings (variety ‘Harrington’) were propagated in soil-less potting mix, with each pot having 8 to 12 plants, and used for testing when the first leaf was fully emerged. Test plants were inoculated with a spore suspension of Cochliobolus sativus 24 h after fungicide treatments. After inoculation the plants were kept in […] for two days to permit spores to germinate and infect the leaf. The plants were then transferred to a greenhouse for disease to develop. Fungicide formulation, application and disease assessment followed the procedures as described in Example A.

Structure (SMILES)	pest or weed control at 200 ppm (Zymoseptoria tritici; 24 h, 1DP (1 day protectant)) [%]	pest or weed control at 200 ppm (Zymoseptoria tritici; 72 h, 3DC (3 day curative)) [%]	pest or weed control at 200 ppm (Puccinia triticina) [%]	pest or weed control at 200 ppm (Phakopsora pachyrhizi; 24 h, 1DP (1 day protectant)) [%]	pest or weed control at 200 ppm (Phakopsora pachyrhizi; 72 h, 3DC (3 day curative)) [%]	pest or weed control at 200 ppm (Rhynchosporium commune) [%]	% Disease Control Rating COCHSA (Cochliobolus sativus)	melting point [°C]
CCN(C)/C=N/c1cc(C)c(C(=O)CC2CCCC2)cc1C [Compound 4]	> 85	50 to 85	> 85	> 85	> 85	> 85	A (>85%)	
CCN(C)/C=N/c1cc(C)c(C(=O)Cc2ccc(C)cc2)cc1C [Compound 9]	< 20	< 20	> 85	> 85	> 85	> 85	A (>85%)	90 to 93
CCN(C)/C=N/c1ccc(C(=O)CCCC(F)(F)F)c(C)c1C [Compound 14]	< 20	< 20	> 85	> 85	> 85	< 20		49 to 52
CCN(C)/C=N/c1ccc(C(=O)CC2CCCCC2)c(C)c1C [Compound 15]	< 20	< 20	< 20	> 85	> 85	50 to 85		68 to 72
